# Where a SMILES comes first, the peptide text is derived from it. [ ]: non-standard residue; d: D form. The star is where a group is joined. 12Ado = NCCCCCCCCCCCC(=O)O; Decanoyl = CCCCCCCCCC(=O)*; Dap = NC[C@H](N)C(=O)O
# Columns and labels:
# E. coli 25922 [1] = conditions: same assessment tools; cited from earlier work
# From the text: To our knowledge, the finding of an adjuvant whose activity is enhanced—rather than repressed—after efflux, is hitherto unreported. One might ask, at this point: If the K-, O and B-based analogs are efflux substrates (as implied by MIC data, Table 2), how come only C10BBc12B is positively affected by efflux?
# HEK-293FT = test: Cytotoxicity, Alamar blue; assay type: cell-based, human; conditions: 24 h incubation, read-out: IC50 HEK-293FT (50% inhibition of cells respiration)
# Method: (§1) Cell lines used in this study included murine RAW 264.7 macrophages and human embryonic kidney HEK-293FT cells (ATCC, Biological Industries, Beit Haemek, Israel). Cells were grown in Dulbecco’s modified eagle medium (DMEM) containing […] glucose, L-glutamine, sodium bicarbonate and sodium pyruvate, supplemented with 10% fetal bovine serum and pen-strep, at 37 °C and 5% CO2.
# (§2) Lipopeptides cytotoxicity was determined using fluorescent measurements of reduced resazurin. 2 × 10^4 cells were first cultured in 96-well plates over-night (final volume of 100 µl) at 37 °C and 5% CO2. Then, the medium was removed and cells were incubated for an additional 24 h with serial twofold dilutions of the lipopeptides in growth medium. Then, 10 µl of Alamar blue were added and plates were incubated for 3 h, after which fluorescence (excitation: 530 nm; emission: 590 nm) of the reduced resazurin was recorded (BioTek Instruments Synergy HT; Winooski, VT, USA).
# P. aeruginosa = test: MIC, broth microdilution; assay type: cell-based, Pseudomonas aeruginosa; conditions: broth microdilution in LB, 18–24 h, 37 °C; n = 3 strains
# From the text: (§3) Bacteria used in this study consisted of standard American Type Culture Collection (ATCC; Biological Industries, Beit Haemek, Israel) strains, clinically isolated (CI; Sourasky Medical Center, Tel Aviv, Israel) strains, as well as isogenic mutant strains. Gram-negative bacteria included Acinetobacter baumannii ATCC 19606; Escherichia coli ATCC 25922, 35218, CFT073, CI 14384, 16327, and the isogenic pair Ag100 (wild-type) and its efflux deficient mutant Ag100a (ΔacrAB); Klebsiella pneumoniae CI 1287, 224; Pseudomonas aeruginosa ATCC 27853, CI 1278, 8634; Salmonella enterica serovar Typhimurium ATCC 14028 (wild-type) and its isogenic efflux deficient mutant ΔacrAB. Bacteria were grown in Luria–Bertani broth (LB; 5 g/l NaCl, 5 g/l yeast extract, 10 g/l tryptone; pH = 7.0) at 37 °C with shaking. Over-night cultures were diluted 10-folds into fresh growth-medium and incubated at 37 °C with shaking until reaching mid-logarithmic phase. Then, bacterial concentrations were adjusted using O.D.600 nm measurements, and bacteria were subjected to the experimental procedures listed herein.
# (§4) MIC was determined according to the broth microdilution method: antimicrobials were subjected to serial twofold dilutions in LB medium, and incubated with 5 × 10^5 CFU/ml of bacteria (final volume of 200 µl) for 18–24 h at 37 °C. Then, O.D.620 nm was measured (BioTek Instruments Synergy HT; Winooski, VT, USA), and the MIC was defined as the lowest antimicrobial concentration for which no increase in O.D.620 nm was evident, compared to the untreated control.
# [2] = system: S. Typhimurium 14028ΔAcrAB; conditions: cited from earlier work
# From the text: Table 2 Effect of RND pumps on growth-inhibitory activity. | column: MIC^a (µM) in LB / S. Typhimurium / Mutant
# A. baumannii = test: MIC, broth microdilution; assay type: cell-based, Acinetobacter baumannii; conditions: broth microdilution in LB, 18–24 h, 37 °C; n = 1 strain
# From the text: as §3, §4
# E. coli = test: MIC, broth microdilution; assay type: cell-based, Escherichia coli; conditions: broth microdilution in LB, 18–24 h, 37 °C; n = 4 strains; published data in bold (not discernible)
# From the text: as §3, §4
# murine RBC = test: Hemolysis; assay type: cell-based; conditions: 1% hematocrit murine RBC, 3 h, 37 °C
# Method: Permeabilization of red blood cells (RBC) was evaluated using absorbance measurements of extracellular hemoglobin. Serial twofold dilutions of lipopeptides were incubated with 1% hematocrit of murine RBC for 3 h at 37 °C with shaking. Samples were then centrifuged at 20,000 RCF for 5 min, and absorbance of the supernatants was measured at 450 nm (BioTek Instruments Synergy HT; Winooski, VT, USA). Percent hemolysis was then calculated by (AS − AN)/(AP − AN) × 100; where AS, AN, and AP represent the absorbance of the sample, negative control (PBS) and positive control (Milli-Q water), respectively. LC50 values were extracted from trend-lines generated for linear-regions of plots correlating lipopeptide concentrations and percent hemolysis.
# K. pneumoniae = test: MIC, broth microdilution; assay type: cell-based, Klebsiella pneumoniae; conditions: broth microdilution in LB, 18–24 h, 37 °C; n = 2 strains
# From the text: as §3, §4
# [3] = system: S. Typhimurium 14028 (wild-type); conditions: cited from earlier work
# From the text: Table 2 Effect of RND pumps on growth-inhibitory activity. | column: MIC^a (µM) in LB / S. Typhimurium / Wild-Type
# [4] = system: E. coli Ag100 (wild-type); conditions: cited from earlier work
# From the text: Table 2 Effect of RND pumps on growth-inhibitory activity. | column: MIC^a (µM) in LB / E. coli / Wild-Type
# E. coli Ag100a (ΔacrAB) = conditions: cited from earlier work
# From the text: Table 2 Effect of RND pumps on growth-inhibitory activity. | column: MIC^a (µM) in LB / E. coli / Mutant
# RAW 264.7 = test: Cytotoxicity, Alamar blue; assay type: cell-based, murine; conditions: 24 h incubation, read-out: IC50 RAW 264.7 (50% inhibition of cells respiration)
# Method: as §1, §2
# [5] = system: Gram-negative ESKAPE pathogens; test: MIC against 10 bacterial strains of the four Gram-negative ESKAPE species; assay type: cell-based
# From the text: as §3
# MIC was determined according to the broth microdilution method: antimicrobials were subjected to serial twofold dilutions in LB medium, and incubated with 5 × 10^5 CFU/ml of bacteria (final volume of 200 µl) for 18–24 h at 37 °C. […]
# [6] = design: method as in PMID 20480482; conditions: cited from earlier work
# E. coli 25922 [7] = test: Growth / time-kill kinetics; assay type: cell-based, Escherichia coli; conditions: 10 µM C10BBc12B, 1 µg/ml erythromycin or 20 ng/ml rifampin alone
# Method: Antimicrobials mode of action was determined according to the rate of bacterial killing. Varying concentrations of lipopeptides, antibiotics and combinations thereof were mixed in LB medium with 5 × 10^5 CFU/ml of bacteria (final volume of 1 ml) and incubated at 37 °C with shaking. At the designated time-points aliquots were serially tenfold diluted in saline, plated on LB agar, and incubated over-night at 37 °C for enumeration.
# A. baumannii 19606 = test: Selective pressure, MIC evolution over 15 consecutive subcultures; conditions: in absence of C10BBc12B
# Method: The likelihood of antimicrobial-resistance development was assessed by recording MIC changes upon consecutive rounds of antimicrobials application, as in the MIC assay. Following each round, bacteria from wells corresponding to ½ of the resulting MIC were regrown in fresh media to mid-logarithmic phase and subjected to the same procedure for 15 consecutive days[66].
# K. pneumoniae 1287 = test: Combination with antibiotics, modified checkerboard titration; assay type: cell-based, Klebsiella pneumoniae
# Method: as §4
# (§5) Lipopeptides and antibiotics combinations were assessed using a modified version of the checkerboard titration method: Antibiotics MIC was determined in LB medium containing sub-inhibitory lipopeptide concentrations. The sensitization factor (SF)[46] was then calculated by SF = MICA/MICC, where “MICA” is the antibiotic MIC in absence of an adjuvant and “MICC “ is the antibiotic MIC in presence of an adjuvant, for a specified adjuvant concentration. Combinations were classified as synergistic when antibiotics MIC were decreased by > 4 folds. Alternatively, the fractional inhibitory concentration index (FICI) was calculated by FICI = MICC1/MICA1 + MICC2/MICA2, where “MICC1” and “MICC2” respectively specify the antibiotic and the adjuvant MIC values upon their combination, whereas “MICA1” and “MICA2” respectively specify the antibiotic and the adjuvant MIC values when tested individually. Combinations were classified as synergistic for FICI < 0.5.
# UPEC CFT073 = test: Urinary-tract infection model; assay type: in vivo, mice; conditions: 24 h post-infection; 2 mg/kg rifampin, 7.5 mg/kg q.i.d. C10BBc12B or both; n = 5
# Method: (§6) The study is reported in accordance with ARRIVE guidelines.
# (§7) Lipopeptides potential application in monotherapy and/or combination-therapies was explored with two infection models. In the peritonitis-sepsis model, mice (n = 10 per group) were first rendered neutropenic by two intraperitoneal (I.P.) injections of 0.3 ml containing 150 mg/kg and 100 mg/kg cyclophosphamide, administered 4 days and 1 day before the experiment, respectively. […] Mice survival was recorded for up to 7 days. In a variant assay, bacteria in PBS (1.4 × 10^6) were pre-treated with 10 µM lipopeptides for 15 min, similarly administered, and mice survival was recorded for up to 3 days. In the urinary-tract infection (UTI) model, mice (N = 5 mice per group) were anesthetized by a single I.P. injection (0.2 ml) containing a mixture of ketamine (100 mg/kg) and xylazine (5 mg/kg). Following application of an analgesic 2% lidocaine gel on their penises, mice were infected intra-urethraly using a 24-gauge catheter with 1.2 × 10^8 CFU/mouse (0.05 ml) and treated with the vehicle control (S.C., 1 h post-infection), 2 mg/kg rifampin (oral gavage, immediately before anesthesia), 7.5 mg/kg q.i.d. lipopeptides (S.C., starting 1 h post-infection), or both. Mice were sacrificed 24 h post-infection, their bladder and kidneys aseptically excised, suspended in 5 ml of sterile PBS, homogenized for 3 min using a bench-top homogenizer, serially tenfold diluted in saline, plated on LB agar, and incubated over-night at 37 °C for enumeration.
# E. coli 25922 [8] = test: Peritonitis-sepsis infection model in neutropenic mice; assay type: in vivo; conditions: n = 10
# Method: as §6, §7
# E. coli 25922 [9] = assay type: cell-based, Escherichia coli; conditions: E. coli
# Method: as §4, §5
Compound,IC50 (HEK-293FT) [µM],"MIC (µM) in LB, S. Typhimurium Mutant [2] [µM]",MIC A. baumannii (n=1) (A. baumannii) [µM],MIC E. coli (n=4) (E. coli) [µM],LC50 Erythrocytes (50% hemolysis) (murine RBC) [µM],MIC K. pneumoniae (n=2) (K. pneumoniae) [µM],"MIC (µM) in LB, S. Typhimurium Wild-Type [3] [µM]","MIC (µM) in LB, E. coli Wild-Type [4] [µM]","MIC (µM) in LB, E. coli Mutant (E. coli Ag100a (ΔacrAB)) [µM]",IC50 (RAW 264.7) [µM],"effect on bacterial proliferation, individual agent (E. coli 25922 [7])",antibiotic MIC after 15 consecutive subcultures (A. baumannii 19606),antibiotic MIC before subculturing (A. baumannii 19606) [µg/mL],also measured
CCCCCCCCCC(=O)N[C@@H](CCCCN)C(=O)N[C@@H](CCCCN)C(=O)NCCCCCCCCCCCC(=O)N[C@@H](CCCCN)C(N)=O [C10KKc12K] (Decanoyl-KK[12Ado]K-NH2),> 50,25,> 50,≥ 50,> 50,≥ 50,> 50,> 50,6.2,> 50,,,,CM depolarization (E. coli 25922 [1]): interact with the CM to the point of inducing its depolarization; MIC P. aeruginosa (n=3) (P. aeruginosa): > 50 µM
CCCCCCCCCC(=O)N[C@@H](CN)C(=O)N[C@@H](CN)C(=O)NCCCCCCCCCCCC(=O)N[C@@H](CN)C(N)=O [C10PPc12P] (Decanoyl-[Dap][Dap][12Ado][Dap]-NH2),> 50,,> 50,12.5 to 25,26,≥ 50,,,,> 50,,,,MIC [5]: occasionally presented somewhat lower MIC values; side-chain β-NH2 group pKa [6]: 6.3
CC[C@H]1OC(=O)[C@H](C)[C@@H](O[C@H]2C[C@@](C)(OC)[C@@H](O)[C@H](C)O2)[C@H](C)[C@@H](O[C@@H]2O[C@H](C)C[C@H](N(C)C)[C@H]2O)[C@](C)(O)C[C@@H](C)C(=O)[C@H](C)[C@@H](O)[C@]1(C)O [Erythromycin],,6.8,,,,,> 50,> 50,10.9,,unable to significantly alter bacterial proliferation,"8,192 µg/ml",64,antibiotic inhibitory concentration in absence of adjuvant (K. pneumoniae 1287): 512 µg/mL; antibiotic inhibitory concentration in presence of C10BBc12B (K. pneumoniae 1287): 0.250 µg/mL
"CO[C@H]1/C=C/O[C@@]2(C)Oc3c(C)c(O)c4c(O)c(c(/C=N/N5CCN(C)CC5)c(O)c4c3C2=O)NC(=O)/C(C)=C\C=C\[C@H](C)[C@H](O)[C@@H](C)[C@@H](O)[C@@H](C)[C@H](OC(C)=O)[C@@H]1C [Rifampin, reference compound]",,19.4,,,,,19.4,19.4,19.4,,unable to significantly alter bacterial proliferation,8 µg/mL,2,"bladder bacterial load (UPEC CFT073): no reduction in bacterial load; survival rate, monotherapy (E. coli 25922 [8]; 1.7 × 10^6 CFU/mouse, […] C10BBc12B S.C. 1 h post-infection or 20 mg/kg rifampin oral gavage): 50%; efficacy, monotherapy, higher inoculum (E. coli 25922 [8]; 1.9 × 10^6 CFU/mouse, […] C10BBc12B S.C. or 20 mg/kg rifampin oral): virtually no efficacy; antibiotic MIC in presence of C10BBc12B (K. pneumoniae 1287): below 1 ng/ml; antibiotic MIC in presence of C10BBc12B (E. coli 25922 [9]): below 1 ng/ml"

# Reference: PMC9586926, “An efflux-susceptible antibiotic-adjuvant with systemic efficacy against mouse infections” (Scientific Reports, 2022)
